Results published in patent publication US9913862B2, “Methods of treating gram-negative microbial infections” (TRUSTEES OF BOSTON UNIVERSITY, priority 2011, dated 2018).
Read-outs that look alike come from different tables or passages of the source.

Key:
[1] = tested on: Fe—S clusters in E. Coli cell lysate; details: 30 μM AgNO3 for 1 hr
Description: Iron detection Ferene S colorimetric assay: The release of protein-bound iron in an E. Coli cell lysate was measured using a Ferene-S assay. The lysate was prepared by first growing 150 mL of cells to an OD600 nm of 0.7. The cells were then lysed by sonication in 20 mM Tris/HCl pH 7.2 buffer. The samples were centrifuged and the supernatants containing the cell lysates were collected. Lysates were treated either with heat (90° C. for 20 min) or with 30 μM AgNO3 (for 1 hr). 10 mM Ferene-S was added to each sample and samples were then incubated at room temperature for 1 h. Absorbance at 593 nm was then measured.

[2] = tested on: human cell lines (primary keratinocytes, primary hepatocytes and neurons)
E. Coli [3] = test: Mouse peritonitis model, survival assay; format: in vivo, mice; details: after 5 days; i.p.; 30 mg vancomycin/kg, 6 mg AgNO3/kg (35 μM)
Description: (§1) Minimum lethal dose (MLD) of E. coli for peritonitis mouse model: For all animal experiments, 6-week-old C57BL6 male mice (body weight, ˜20 g) were used. Serial dilutions of E. Coli ranging from 1×10^6-1×10^9 cfu/mouse were introduced into the peritoneal cavity of the mice in 500 μL aliquots of sterile saline supplemented with 8% mucine. […] The MLD was determined to be 5×10^6 cfu/mouse by measuring the lowest concentration of E. Coli that killed 100% of the recipient mice.
Survival Assays: Male C57BL6 6-week old mice (weighing ˜20 g) received intraperitoneal injections of the MLD of E. Coli in a volume of 500 μL with 8% mucine. After 1 h, ten mice per group received either vehicle (PBS) only or infusions of the antibacterial treatments.

E. coli [4] = details: ΔdsbA knockout; 1 h; 30 μM AgNO3
Fur reporter strain = details: one hour of treatment; 15 and 30 μM AgNO3
Description: (§2) Iron misregulation superoxide production and disulfide bond formation measurements: Iron regulation and superoxide production were measured using previously constructed genetic reporter strains. A disulfide bond formation sensor was constructed based on activation of the OxyR protein, which forms a disulfide bond in the presence of H2O2. The disulfide bond formation sensor was constructed by PCR-amplifying the native dps promoter and cloning it into the BamHI and XhoI restriction sites of the pZE21 vector [33]. The forward primer for PCR was […] (SEQ ID NO: 1), and the reverse primer was […] (SEQ ID NO: 2). The data were collected using a Becton Dickinson FACSCalibur flow cytometer with a 488-nm argon laser and a 515-545 nm emission filter (FL1) at high flow rate. Calibrite beads (Becton Dickinson) were used for instrument calibration. FlowJo was used to process flow cytometric data.

soxS reporter strain = details: 1 h, 30 μM AgNO3
Description: as §2

E. Coli [5] = test: Mouse peritonitis model, E. coli counts in peritoneal cavity; format: in vivo, mice; details: after 24 hours; single agent i.p.; 30 mg vancomycin/kg or 6 mg AgNO3/kg
Description: as §1
Mouse Peritonitis Model: Inbred, wildtype male C57BL/6 mice (6 weeks; ˜20 g) were used. After one week of quarantine, inoculation was performed by intraperitoneal (i.p.) injection of 500 μL of the MLD E. Coli inoculum using a 26-gauge syringe. The inoculum was delivered in suspension with 8% (w/v) mucine in sterile saline. 1 h after introduction of the inoculum, the untreated control group (t=0) was euthanized. Subsequently, antibacterial therapy was initiated by intraperitoneal injection. Ten mice per group received antibacterial treatments. At time 0 (control only), 8, 16 and 24 h, mice were euthanized. Peritoneal washes were performed by injecting 1.0 mL of sterile saline in the intraperitoneal followed by a massage of the abdomen. Subsequently, the abdomen was opened and 200 μL of peritoneal fluid (PF) was recovered from the peritoneum for analysis of E. Coli cfu/mL.

E. coli [6] = format: cell-based; details: for bactericidal activity when sublethal Ag+ is added to the antibiotic: sublethal antibiotic (0.25 μg/mL gentamicin, 0.03 μg/mL ofloxacin, 1 μg/mL ampicillin) plus 15 μM AgNO3
Description: Antibiotics and chemicals: All experiments presented herein were performed in Luria Bertani (LB) medium (Fisher Scientific). […] Additional chemicals that were used in the Examples include: phosphate buffer saline (PBS) (Sigma), Tris/HCl buffer pH 7.5 (Sigma), ferene-S(Fisher Scientific), 3′-p-hydroxyphenyl fluorescein dye (Invitrogen), propidium iodide (Invitrogen), and thiourea (Fluka).
Media and growth conditions: The growth and survival of untreated exponential-phase E. coli strains were compared with the antibiotic-treated strains. Briefly, cultures from frozen stock were grown overnight. The overnight culture was diluted 1:250 with 25 mL of LB medium in 250 mL flasks and incubated at 37° C., 300 rpm, and 80% humidity. Cells were then grown until an OD600 nm of 0.3. For antibiotic treatments, 500 μL samples were taken from the flasks and transferred to a 24-well plate incubated at 37° C., 900 rpms, and 80% humidity. For the hydroxyl radical (OH•) quenching experiments, thiourea (150 mM) was added simultaneously with the silver salt (e.g., AgNO3). Measurements of OD600 nm were taken using a SpectraFluor Plus (Tecan). For measuring the colony forming unit (cfu) per milliliter (mL), 100 μL of culture was collected and then serially diluted in PBS (pH 7.2). A 5 μL portion of each dilution was plated in LB-agar plates and incubated overnight at 37° C. The colonies were counted and cfu/mL was calculated using the following formula: ((number of colonies)*(dilution factor))/(amount plated).
Strains: All E. Coli experiments were performed with MG1655 (ATCC 700926)-derived strains. The knockouts were constructed using P1 phage transduction and derived from the Keio single-gene knockout collection. Removal of the kanamycin resistance cassette was accomplished using the pcp20 plasmid and confirmed by PCR prior to experimentation.

mice = details: concentrations up to 12 mg AgNO3/kg (70 μM)
E. coli [7] = tested on: E. coli
Description: Transmission electron microscopy: Samples analyzed with transmission electron microscopy were prepared using the following procedure: 100 μL samples were taken, centrifuged and resuspended in 1×PBS twice. To fix the bacterial cells, the samples were centrifuged and resuspended in 1 mL of 2.5% glutaraldehyde solution in PBS for 30 min. The cells were then dehydrated by exposing them for 10 min to a series of ethanol concentration solutions (50, 60, 80, 90 and 100% ethanol/PBS solutions). The cells were finally embedded into Spurr resin and left to polymerize in an oven at 60° C. for 24 h. The polymerized samples were sectioned into slices of thickness of ˜60 nm using a microtome. The sliced samples were analyzed in a Jeol 1200EX-80 kV.

E. coli [8] = format: cell-based; details: for ROS production when sublethal Ag+ is added to the antibiotic: sublethal antibiotic plus 15 μM AgNO3
Source text: FlowJo was used to process flow cytometric data.

dps reporter strain = dps reporter strain (OxyR disulfide bond formation sensor); format: cell-based, E. coli; details: 1 h
Source text: The forward primer for PCR was […] […] (SEQ ID NO: 2). […] Calibrite beads (Becton Dickinson) were used for instrument calibration. FlowJo was used to process flow cytometric data.

With `O=[N+]([O-])[O-].[Ag+]` [Ag^+, silver nitrate] the “Fe+2 levels in treated lysate relative to untreated lysate” value [1] was “higher Fe^+2 levels”, the “toxicity in human cell lines” value [2] was “no significant toxicity” and the mice survived (E. Coli [3]) was 50%. The “permeability (PI) of ΔdsbA strain versus treated wildtype” value (E. coli [4]) was “more permeable”, the “Fur reporter GFP fluorescence relative to untreated cells” value (Fur reporter strain) was “significantly increased fluorescence” and the “response of soxS reporter strain (superoxide production)” value (soxS reporter strain) was “induce superoxide production”. For the same compound, the “superoxide levels in ΔcydB in response to treatment” value (soxS reporter strain; soxS reporter in ΔcydB) was “lower levels of superoxide”, the “effect on peritoneal E. Coli cell counts” value (E. Coli [5]) was “no effect” and the “bactericidal activity against exponentially growing E. coli” value (E. coli [6]; 30 μM, wildtype) was “significant bactericidal activity”. The “phenotype of DsbC knockout under treatment” value (E. coli [6]; DsbC knockout, 30 μM AgNO3) was “phenotype similar to that exhibited by ΔdsbA”, the “reduction or inhibition of growth compared to untreated microbes” value (E. coli [6]; silver ions at about 30 μM, FIG. 1A) was “at least 30%” and the “sensitivity of ΔarcA strain compared to wildtype” value (E. coli [6]; ΔarcA knockout, 30 μM AgNO3) was “lower sensitivity”. For the same compound, the “sensitivity of ΔcpxA and ΔcpxR strains versus wildtype” value (E. coli [6]; ΔcpxA and ΔcpxR knockouts, 30 μM AgNO3) was “less sensitive”, the “sensitivity of cytochrome bd knockout (ΔcydB) versus wildtype” value (E. coli [6]; 30 μM AgNO3) was “less sensitive” and the “sensitivity of cytochrome bd knockout (ΔcydB) versus wildtype” value (E. coli [6]; 30 μM AgNO3, listed as silver nitrate) was “considerably less sensitivity”. For the same compound, the “sensitivity of cytochrome bo knockout (ΔcyoA) versus wildtype” value (E. coli [6]; ΔcyoA knockout) was “greater sensitivity”, the “sensitivity of ΔdsbA strain versus treated wildtype” value (E. coli [6]; ΔdsbA knockout, 30 μM AgNO3) was “more sensitive” and the “sensitivity of TCA cycle gene knockout strains versus wildtype” value (E. coli [6]; ΔicdA, ΔsucB, Δmdh, ΔacnB, 30 μM AgNO3) was “less sensitive”. The “phenotype of ΔiscS strain under treatment” value (E. coli [6]; ΔiscS knockout, 30 μM AgNO3) was “bacteriostatic phenotype”, the “susceptibility of ΔsecG strain compared to wildtype” value (E. coli [6]; ΔsecG knockout, 30 μM AgNO3) was “less susceptible” and the toxicity in mice (mice) was “no effect”. For the same compound, the “physical changes of bacterial cells (TEM) at sublethal concentrations” value (E. coli [7]; 10 μM and 20 μM AgNO3) was “moderate morphological changes and protein aggregate formation”, the “physical changes of bacterial cells (TEM)” value (E. coli [7]; bactericidal concentrations (30 μM AgNO3)) was “protein aggregation and drastic morphological changes in the cell envelope” and the “HPF fluorescence (OH• production) compared to untreated cells” value (E. coli [8]; treated for one hour, 30 μM AgNO3, wildtype) was “detectable increases in fluorescence”. The “hydroxyl radical production in ΔarcA strain compared to wildtype” value (E. coli [8]; ΔarcA knockout, 1 h, 30 μM AgNO3) was “lower hydroxyl radical production”, the “hydroxyl radical production in ΔcpxA and ΔcpxR strains” value (E. coli [8]; ΔcpxA and ΔcpxR knockouts, 1 h, 30 μM AgNO3) was “lower levels of hydroxyl radical production” and the “OH• production in ΔiscS compared to wildtype cells” value (E. coli [8]; ΔiscS knockout, 1 h, 30 μM AgNO3) was “significantly lower OH• production”. The “dps reporter GFP fluorescence on addition to H2O2 treatment” value (dps reporter strain; 30 μM AgNO3 added to 0.5 mM H2O2) was “reduced the fluorescence back to untreated levels”.

For `OO` [H2O2, reference compound], the “dps reporter GFP fluorescence relative to untreated cells” value (dps reporter strain; 0.5 mM H2O2 alone) was “significantly increased fluorescence”.

For `CC1(C)S[C@@H]2[C@H](NC(=O)[C@H](N)c3ccccc3)C(=O)N2[C@H]1C(=O)O` [ampicillin, reference compound], the “bactericidal activity when sublethal Ag+ is added to the antibiotic” value (E. coli [6]) was “significantly enhanced bactericidal activity”, the “ROS (OH•) production from sublethal antibiotic alone” value (E. coli [8]; 1 h) was “no detectable increases in ROS production” and the “ROS production when sublethal Ag+ is added to the antibiotic” value (E. coli [8]; 1 h) was “dramatic increases in ROS”.

With `CN[C@H](CC(C)C)C(=O)N[C@H]1C(=O)N[C@@H](CC(N)=O)C(=O)N[C@H]2C(=O)N[C@H]3C(=O)N[C@H](C(=O)N[C@H](C(=O)O)c4cc(O)cc(O)c4-c4cc3ccc4O)[C@H](O)c3ccc(c(Cl)c3)Oc3cc2cc(c3O[C@@H]2O[C@H](CO)[C@@H](O)[C@H](O)[C@H]2O[C@H]2C[C@](C)(N)[C@H](O)[C@H](C)O2)Oc2ccc(cc2Cl)[C@H]1O` [vancomycin, reference compound] the mice survived (E. Coli [3]) was 10%, the “effect on peritoneal E. Coli cell counts” value (E. Coli [5]) was “no effect” and the “cell death with combination relative to Ag+ or vancomycin alone” value (E. coli [6]; 30 μg/mL vancomycin combined with 15, 20 or 30 μM AgNO3) was “significantly higher levels of cell death”. For the same compound, the “growth of Gram-negative microbes (E. coli) under combination” value (E. coli [6]; vancomycin combined with silver nitrate, silver ions about 15 μM, FIG. 8D) was “reduces the growth”.

With gentamicin [reference compound] the “bactericidal activity when sublethal Ag+ is added to the antibiotic” value (E. coli [6]) was “significantly enhanced bactericidal activity”, the “ROS (OH•) production from sublethal antibiotic alone” value (E. coli [8]; 1 h) was “no detectable increases in ROS production” and the “ROS production when sublethal Ag+ is added to the antibiotic” value (E. coli [8]; 1 h) was “dramatic increases in ROS”.
